The values that follow are results of earlier work, collected in US20200061109A1, “ZINC CHLORIDE HYDROXIDE HAVING EXCELLENT ZINC ION SUSTAINED-RELEASABILITY AND PRODUCTION METHOD THEREFOR” (JFE MINERAL COMPANY, LTD., priority 2016, published 2020).

Data set [1] concerns fibroblasts.
Data set [2] concerns skin. As to conditions: in vivo.

For `[Zn+2]` [Zn^2+ ions], in data set [1], the “concentration at which no toxicity is shown against fibroblasts” value is recorded as “no more than 500 μmol/L”. In addition, the “level that increases inflammatory cell infiltration of skin and significantly delays re-epithelialization” value in data set [2] is reported as “not less than 15 mmol/L”.
